Data taken from the NIST ThermoML archive (doi:10.1016/j.fluid.2013.08.029).

Experiment: xn = mol fraction of the nth substance listed
Conditions: 101 kPa, Liquid; for speed of sound: Sing-around technique in a fixed-path interferometer; for mass density: Vibrating tube method

CCCCCn1cc[n+](C)c1.[Br-] [1-pentyl-3-methylimidazolium bromide] + OCCO
Conditions | mass density [kg/m3] | speed of sound [m/s]
288.15 K, x1 = 0.0528 | 1135.7 | 1671.7
288.15 K, x1 = 0.1031 | 1149.85 | 1664.4
288.15 K, x1 = 0.2102 | 1173.93 | 1650.6
288.15 K, x1 = 0.3163 | 1191.2 | 1645.3
288.15 K, x1 = 0.4186 | 1204.89 | 1641.4
288.15 K, x1 = 0.512 | 1215.13 | 1637.7
288.15 K, x1 = 0.6129 | 1224.18 | 1636.5
288.15 K, x1 = 0.6967 | 1232.13 | 1638.7
288.15 K, x1 = 0.8031 | 1241.92 | 1645
288.15 K, x1 = 0.9021 | 1252.46 | 1657.9
293.15 K, x1 = 0.0528 | 1132.19 | 1659.9
293.15 K, x1 = 0.1031 | 1146.32 | 1653.9
293.15 K, x1 = 0.2102 | 1170.4 | 1642
293.15 K, x1 = 0.3163 | 1187.71 | 1634.5
293.15 K, x1 = 0.4186 | 1201.44 | 1628.9
293.15 K, x1 = 0.512 | 1211.73 | 1625.5
293.15 K, x1 = 0.6129 | 1220.73 | 1623.6
293.15 K, x1 = 0.6967 | 1228.69 | 1623.8
293.15 K, x1 = 0.8031 | 1238.53 | 1626.3
293.15 K, x1 = 0.9021 | 1249.15 | 1631.1
298.15 K, x1 = 0.0528 | 1128.67 | 1648.2
298.15 K, x1 = 0.1031 | 1142.79 | 1640.8
298.15 K, x1 = 0.2102 | 1166.87 | 1630.7
298.15 K, x1 = 0.3163 | 1184.21 | 1623
298.15 K, x1 = 0.4186 | 1198 | 1616.8
298.15 K, x1 = 0.512 | 1208.33 | 1613.8
298.15 K, x1 = 0.6129 | 1217.41 | 1612.4
298.15 K, x1 = 0.6967 | 1225.25 | 1611.9
298.15 K, x1 = 0.8031 | 1235.13 | 1613.2
298.15 K, x1 = 0.9021 | 1245.76 | 1616
303.15 K, x1 = 0.0528 | 1125.14 | 1636.4
303.15 K, x1 = 0.1031 | 1139.26 | 1629.8
303.15 K, x1 = 0.2102 | 1163.34 | 1619.1
303.15 K, x1 = 0.3163 | 1180.73 | 1611.6
303.15 K, x1 = 0.4186 | 1194.57 | 1606.2
303.15 K, x1 = 0.512 | 1204.94 | 1603
303.15 K, x1 = 0.6129 | 1214.06 | 1601.7
303.15 K, x1 = 0.6967 | 1221.86 | 1600.4
303.15 K, x1 = 0.8031 | 1231.73 | 1600.9
303.15 K, x1 = 0.9021 | 1242.37 | 1602.4
308.15 K, x1 = 0.0528 | 1121.61 | 1624.7
308.15 K, x1 = 0.1031 | 1135.72 | 1618.3
308.15 K, x1 = 0.2102 | 1159.81 | 1607.5
308.15 K, x1 = 0.3163 | 1177.25 | 1600.1
308.15 K, x1 = 0.4186 | 1191.13 | 1594.3
308.15 K, x1 = 0.512 | 1201.54 | 1591.3
308.15 K, x1 = 0.6129 | 1210.72 | 1590
308.15 K, x1 = 0.6967 | 1218.56 | 1589.1
308.15 K, x1 = 0.8031 | 1228.31 | 1589.3
308.15 K, x1 = 0.9021 | 1238.93 | 1589.8
313.15 K, x1 = 0.0528 | 1118.07 | 1613.1
313.15 K, x1 = 0.1031 | 1132.18 | 1606.5
313.15 K, x1 = 0.2102 | 1156.29 | 1596.1
313.15 K, x1 = 0.3163 | 1173.78 | 1588.8
313.15 K, x1 = 0.4186 | 1187.7 | 1583.2
313.15 K, x1 = 0.512 | 1198.15 | 1580.3
313.15 K, x1 = 0.6129 | 1207.38 | 1579.1
313.15 K, x1 = 0.6967 | 1215.25 | 1578.2
313.15 K, x1 = 0.8031 | 1225 | 1578
313.15 K, x1 = 0.9021 | 1235.48 | 1578
318.15 K, x1 = 0.0528 | 1114.51 | 1601.4
318.15 K, x1 = 0.1031 | 1128.62 | 1595
318.15 K, x1 = 0.2102 | 1152.75 | 1584.5
318.15 K, x1 = 0.3163 | 1170.3 | 1577.5
318.15 K, x1 = 0.4186 | 1184.27 | 1572.2
318.15 K, x1 = 0.512 | 1194.76 | 1569.5
318.15 K, x1 = 0.6129 | 1204.05 | 1568.3
318.15 K, x1 = 0.6967 | 1211.94 | 1567.4
318.15 K, x1 = 0.8031 | 1221.73 | 1567.1
318.15 K, x1 = 0.9021 | 1232.06 | 1566.8
